Assay results: US10920265B2, “Compounds and methods for detection of enzymes that remove methyl succinyl groups from epsilon-amino lysine moieties” (Enzo Life Sciences, Inc., priority 2011, dated 2021)
Several values for one entry are separate records, joined by “and”; a condition that tells them apart may be missing. Identical values can stand only once.

Assays:
Assay in all cases: HDAC activity with fluorogenic lysyl substrates
Type in all cases: biochemical
Conditions in all cases: 50 μM substrate
HDAC8 = biological target: T1, HDAC8 (Homo sapiens, UniProt Q9BY41)
T1 construct: purchased ENZO Life Sciences BML-SE145
T1 sequence (Q9BY41 1-377): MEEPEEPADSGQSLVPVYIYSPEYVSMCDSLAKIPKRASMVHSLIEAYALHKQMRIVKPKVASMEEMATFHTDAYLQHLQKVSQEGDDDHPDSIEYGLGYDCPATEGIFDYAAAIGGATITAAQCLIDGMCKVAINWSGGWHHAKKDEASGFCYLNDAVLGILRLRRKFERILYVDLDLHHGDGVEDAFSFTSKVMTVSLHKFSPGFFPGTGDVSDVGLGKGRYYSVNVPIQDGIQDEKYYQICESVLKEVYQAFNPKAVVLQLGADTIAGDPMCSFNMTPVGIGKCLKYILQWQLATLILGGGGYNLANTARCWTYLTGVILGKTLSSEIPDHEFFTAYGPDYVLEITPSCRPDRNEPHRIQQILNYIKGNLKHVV
How it was run: (§1)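 Fluorescence of AMC freed by trypsin after deacylation gave the activity read-out. Reactions held recombinant human HDAC or SIRT enzymes, or HeLa nuclear or whole-cell extract, with acylated lysyl-AMC substrates at 37 °C, following SIRT1 kit instructions.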

HDAC3 = biological target: T2, HDAC3 (Homo sapiens, UniProt O15379)
T2 construct: purchased ENZO Life Sciences BML-SE507
T2 sequence (O15379 whole entry): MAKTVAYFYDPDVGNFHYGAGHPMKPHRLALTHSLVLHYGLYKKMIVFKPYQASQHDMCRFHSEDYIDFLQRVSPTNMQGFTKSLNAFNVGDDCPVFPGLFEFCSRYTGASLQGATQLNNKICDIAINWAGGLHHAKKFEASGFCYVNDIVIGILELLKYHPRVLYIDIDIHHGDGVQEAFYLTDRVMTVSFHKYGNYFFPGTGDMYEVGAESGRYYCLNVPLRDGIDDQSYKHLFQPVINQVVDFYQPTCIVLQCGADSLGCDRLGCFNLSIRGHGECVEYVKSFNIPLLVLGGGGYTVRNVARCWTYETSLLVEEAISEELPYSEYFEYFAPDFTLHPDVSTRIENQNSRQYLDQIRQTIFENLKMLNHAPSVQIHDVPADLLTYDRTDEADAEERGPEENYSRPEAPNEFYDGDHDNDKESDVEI
How it was run: as §1

HDAC7 = biological target: T3, HDAC7 (Homo sapiens, UniProt Q8WUI4)
T3 construct: made in house; host or cells: E. coli
T3 sequence (Q8WUI4 483-903): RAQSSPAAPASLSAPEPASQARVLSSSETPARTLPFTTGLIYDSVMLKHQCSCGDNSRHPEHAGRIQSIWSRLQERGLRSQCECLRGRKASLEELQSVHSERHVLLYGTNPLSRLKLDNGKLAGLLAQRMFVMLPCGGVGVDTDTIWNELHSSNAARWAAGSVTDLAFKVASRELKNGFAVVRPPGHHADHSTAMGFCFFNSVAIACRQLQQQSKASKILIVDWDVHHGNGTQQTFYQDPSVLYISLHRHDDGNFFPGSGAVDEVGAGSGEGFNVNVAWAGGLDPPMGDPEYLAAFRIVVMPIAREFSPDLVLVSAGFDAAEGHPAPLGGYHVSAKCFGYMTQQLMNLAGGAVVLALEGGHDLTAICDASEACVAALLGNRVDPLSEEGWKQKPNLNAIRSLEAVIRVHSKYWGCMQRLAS
How it was run: as §1

HDAC9 = biological target: T4, HDAC9 (Homo sapiens, UniProt Q9UKV0)
T4 construct: made in house; host or cells: E. coli
T4 sequence (Q9UKV0 644-1066 isoform Q9UKV0-5): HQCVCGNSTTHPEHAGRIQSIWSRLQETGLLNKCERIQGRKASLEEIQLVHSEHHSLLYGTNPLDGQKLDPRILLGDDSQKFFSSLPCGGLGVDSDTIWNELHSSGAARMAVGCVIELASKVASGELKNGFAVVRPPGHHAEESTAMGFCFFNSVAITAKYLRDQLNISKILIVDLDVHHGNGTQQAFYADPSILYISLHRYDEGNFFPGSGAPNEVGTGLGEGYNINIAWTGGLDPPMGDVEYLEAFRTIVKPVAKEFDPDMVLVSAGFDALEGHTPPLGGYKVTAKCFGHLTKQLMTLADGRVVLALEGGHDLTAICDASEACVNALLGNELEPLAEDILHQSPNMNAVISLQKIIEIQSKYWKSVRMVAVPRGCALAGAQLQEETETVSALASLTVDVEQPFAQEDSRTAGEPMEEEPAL
How it was run: as §1

Row | Activity (pmol/min/μg) (HDAC8) | Activity (HDAC3) [pmol/min/µg] | Activity (pmol/min/μg) (HDAC7) | Activity (pmol/min/μg) (HDAC9) | Activity (HDAC8) [pmol/min/µg] | Activity (HDAC3; listed as Ac-Lys(Acetyl)-AMC) | Activity (HDAC9) [pmol/min/µg] | Activity (pmol/min/μg) (HDAC3) | Structure (SMILES)
1 | Undetectable | 0.963 | Undetectable | Undetectable | – | – | – | – | CCCCCCCCCCCCCC(=O)NCCCC[C@H](NC(C)=O)C(=O)Nc1ccc2c(C)cc(=O)oc2c1 [Compound 4, N—(N^α-acetyl-L-Lysine(N^ε-myristoyl))-AMC]
2 | – | – | Undetectable | – | 0.091 | 3.8 pmol/min/µg and 3.80 pmol/min/µg | 0.027 | – | CC(=O)NCCCCC(NC(C)=O)C(=O)Nc1ccc2c(C)cc(=O)oc2c1 (stereo not shown) [Ac-Lys(Ac.)-AMC, Ac-Lys(ε-acetyl)-AMC, reference compound]
3 | Undetectable | – | Undetectable | Undetectable | – | – | – | Undetectable | CC(=O)N[C@@H](CCCCNC(=O)CCC(=O)O)C(=O)Nc1ccc2c(C)cc(=O)oc2c1 [Compound 1, N—(N^α-acetyl-L-Lysine(N^ε-succinyl))-AMC]
4 | – | 0.431 | Undetectable | – | 0.003 | – | 0.135 | – | COC(=O)CCC(=O)NCCCC[C@H](NC(C)=O)C(=O)Nc1ccc2c(C)cc(=O)oc2c1 [Compound 5, N—(N^α-acetyl-L-Lysine(N^ε-methyl succinyl))-AMC]
